Like-named read-outs stand apart in the source and are kept apart here.

The nature of assay [1]: DPPH radical scavenging activity. The settings on record: for DPPH Inhibition (%), Mean ± SD: at 5 µM; for EC50: mean ± SD of triplicates. Here is the method:
DPPH radical scavenging activity were carried out using procedures previously described with slight modifications. Shortly, 160 µL of sample solutions/positive control (ascorbic acid) were mixed with 40 µL of DPPH solution and incubated at room temperature for 30 min. After that, absornace were measured at 520 nm using a microplate reader spectrophotometer VERSAmax (Molecular Devices).

Assay [2] is described as follows: Pro-oxidant assay (reducing power). As to conditions: ascorbic acid as positive control; Figure 3. As for the experimental part:
The pro-oxidant activity of isolated compounds were assessed with slight modifications. Shortly, 250 µL of sample solutions/positive control (ascorbic acid) dissolved in 0.2 M phosphate buffer (pH 6.6) and 25 µL of 1% potassium ferricyanide […] were incubated at 50 °C for 20 min. After that, an equal volume of 10% trichloroacetic acid was added and then centriguged at 3000 g for 10 min. The supernatant (500 µL) and distilled water (500 µL) was mixed followed by addition of 0.1% ferric chloride (0.1 mL). Immediately, absorbance were measured spectrophotometrically at 700 nm.

Assay [3] in a line: Peroxynitrite (ONOO−) scavenging activity. As to conditions: for ONOO− Inhibition (%), Mean ± SD: at 5 µM; for EC50: mean ± SD of triplicates. As for the experimental part: Peroxynitrite (ONOO^−) scavenging activity was carried ou with slight modifications. Shortly, 10 µL of sample solutions/positive control (penicillamine) were mixed with rhodamine buffer (pH 7.4) containing 50 mM sodium phosphate dibasic, 50 mM sodium phosphate monobasic, 90 mM sodium chloride, 5 mM potassium chloride, and 100 μM DTPA. The final DHR 123 concentration was 5 µM. The fluorescent intensities were measured after 5 min with/without authentic ONOO^− using a fluorescence microplate reader (Spectramax Gemini XPS, Molecular Devices) at wavelenghts of 485 and 530 nm of excitation and emission, respectively.

The target in another assay is yeast α-glucosidase. Nature of the assay: In vitro α-glucosidase inhibitory activity assay (p-NPG substrate). In kind it is biochemical. As to conditions: for Ki: Dixon plot; for type of α-glucosidase inhibition (in words): Lineweaver-Burk and Dixon plots; for α-Glucosidase Inhibition (%), Mean ± SD: at 100 µM; for IC50: mean ± SD of triplicates. Here is the method: The inhibitory activity against yeast α-glucosidase enzyme was carried out spectrophotometrically in a 96-well micro-plate reader (Molecular Devices, Sunnyvale, CA, USA), using a procedure reported by Li et al. with slight modifications. […] After 15 min of incubation, the reaction was ceased using 80 µL of stop solution (0.2 M sodium carbonate) and absorbance was measured at 405 nm.
(§1) The inhibition constant (Ki) and inhibition mode of α-glucosidase and BACE1 were calculated with Lineweaver-Burk and Dixon plots. […] Each graph was generated using SigmaPlot 12.0 (Systat Software Inc., San Jose, CA, USA) and GraphPad Prism 5 (GraphPad Prism Software, Inc., La Jolla, CA, USA).

Another assay deals with T1, human recombinant PTP1B (Homo sapiens, UniProt P18031).
T1 construct: purchased Biomol International, LLP (Plymouth Meeting, PA, USA)
T1 sequence (P18031 1-435): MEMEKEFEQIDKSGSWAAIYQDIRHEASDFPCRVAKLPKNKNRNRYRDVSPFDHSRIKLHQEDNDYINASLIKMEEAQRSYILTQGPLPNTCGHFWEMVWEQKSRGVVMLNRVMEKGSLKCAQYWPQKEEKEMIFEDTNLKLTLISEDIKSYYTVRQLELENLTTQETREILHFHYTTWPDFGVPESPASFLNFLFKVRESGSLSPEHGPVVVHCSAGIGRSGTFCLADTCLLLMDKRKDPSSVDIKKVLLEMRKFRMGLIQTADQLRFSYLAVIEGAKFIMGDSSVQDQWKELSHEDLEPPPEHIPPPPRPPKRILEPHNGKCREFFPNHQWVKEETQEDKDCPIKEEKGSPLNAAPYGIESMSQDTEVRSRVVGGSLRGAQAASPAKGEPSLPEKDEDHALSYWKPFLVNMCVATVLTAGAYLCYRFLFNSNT
Nature of the assay: In vitro PTP1B inhibitory activity assay (p-NPP substrate). The class given is biochemical. The settings on record: mean ± SD of triplicates. As for the experimental part: The inhibitory activity of the isolated compounds against human recombinant PTP1B was evaluated using p-NPP as a substrate with slight modifications. […] After incubation, the reaction was ceased using 10 µL of stop solution (10 mM sodium hydroxide) and absorbance was measured at 405 nm.

A further assay deals with T2, BACE1 (Homo sapiens, UniProt P56817).
T2 construct: purchased PanVera Corp. (Madison, WI, USA)
Nature of the assay: In vitro BACE1 enzyme assay (FRET kit). In kind it is biochemical. Here is the method:
Each assay was carried out according to the supplied instructions provided by the manufacturer with slight modifications. […] After incubation, the reaction was ceased using 10 µL of BACE1 stop solution and absorbance was measured at 545 nm […] and 585 nm (emission) wavelengths using microplate spectrofluorometer (Spectramax Gemini XPS, Molecular Devices).
as §1

The next assay relates to α-glucosidase. The settings on record: cited from earlier work.
Where [4] appears, read: read-out: BACE1 Inhibition (%), Mean ± SD.

T2 sequence (P56817 46-501): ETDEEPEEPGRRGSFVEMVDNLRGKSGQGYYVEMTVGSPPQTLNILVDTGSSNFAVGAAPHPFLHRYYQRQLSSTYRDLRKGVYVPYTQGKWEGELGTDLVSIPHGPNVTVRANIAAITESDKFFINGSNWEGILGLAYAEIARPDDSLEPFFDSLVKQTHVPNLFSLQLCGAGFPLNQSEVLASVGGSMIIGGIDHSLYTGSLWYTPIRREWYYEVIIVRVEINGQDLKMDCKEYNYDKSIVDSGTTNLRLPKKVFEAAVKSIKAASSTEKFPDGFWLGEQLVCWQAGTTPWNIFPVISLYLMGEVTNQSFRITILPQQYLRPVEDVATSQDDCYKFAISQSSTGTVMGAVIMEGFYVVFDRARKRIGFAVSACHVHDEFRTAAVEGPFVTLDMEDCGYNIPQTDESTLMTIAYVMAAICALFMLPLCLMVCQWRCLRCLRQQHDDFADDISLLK

As to `O=C1O[C@H]([C@@H](O)CO)C(O)=C1O` [Ascorbic acid, ascorbic acid, reference compound], in assay [1], the “DPPH Inhibition (%), Mean ± SD” value is reported as 18.72 ± 0.44 % and the response was half-maximal at 21.35 ± 0.09 µM (EC50).

For `O=c1cc(-c2ccc(O)c(O)c2)oc2cc(O)cc(O[C@@H]3O[C@H](CO)[C@@H](O)[C@H](O)[C@H]3O)c12` [Luteolin 5-O-β-D-glucopyranoside, luteolin 5-O-β-D-glucopyranoside], in assay [2], the “reducing power (pro-oxidant activity)” value was “higher reducing power”. In addition, in assay [3], the “ONOO− Inhibition (%), Mean ± SD” value is listed as 79.23 ± 4.95 % and the EC50 came to 0.5 ± 0.03 µM. For the same molecule, at yeast α-glucosidase, the affinity corresponds to a Ki of 272 µM; the “type of α-glucosidase inhibition (in words)” value is “mixed type of inhibition”; the “α-Glucosidase Inhibition (%), Mean ± SD” value was 14.02 ± 1.45 %; the half-maximal inhibitory concentration (IC50) is 270 ± 4.69 µM. Besides, in assay [1], the “DPPH Inhibition (%), Mean ± SD” value was 52.43 ± 0.53 % and the 50% effective concentration (EC50) came to 4.76 ± 0.05 µM. Moreover, at human recombinant PTP1B, the IC50 is above 400 µM. On BACE1 (at 100 µM, read-out: BACE1 Inhibition (%), Mean ± SD), the inhibition at 100 µM came out at 17.5 ± 1.65%. The same molecule displayed an IC50 against BACE1 (mean ± SD of triplicates) of 970 ± 7.83 µM.

Consider `O=c1cc(-c2ccc(O)c(O)c2)oc2cc(O[C@@H]3O[C@H](CO)[C@@H](O)[C@H](O)[C@H]3O)cc(O)c12` [Luteolin 7-O-β-D-glucopyranoside, luteolin 7-O-β-D-glucopyranoside], for which, in assay [3], the “ONOO− Inhibition (%), Mean ± SD” value was determined as 80.23 ± 4.22 % and the EC50 was 2.51 ± 0.05 µM. In addition, at yeast α-glucosidase, the Ki was 251 µM; the “type of α-glucosidase inhibition (in words)” value is recorded as “competitive inhibition”; the “α-Glucosidase Inhibition (%), Mean ± SD” value was determined as 25.53 ± 1.21 %; the IC50 was determined as 249 ± 2.56 µM. In assay [1], the “DPPH Inhibition (%), Mean ± SD” value was 58.97 ± 1.95 % and the EC50 is 4.79 ± 0.19 µM. The IC50 on human recombinant PTP1B is above 400 µM.

Consider `O=c1cc(-c2ccc(O)c(O)c2)oc2cc(O)cc(O)c12` [Luteolin, luteolin], for which the “reducing power (pro-oxidant activity)” value in assay [2] is “lower reducing power than positive control ascorbic acid”. Also, in assay [3], the “ONOO− Inhibition (%), Mean ± SD” value came out at 85.21 ± 1.61 %. Further, the concentration giving a half-maximal response (EC50) in assay [3] was found to be 0.86 ± 0.04 µM; in assay [1], 3.05 ± 0.06 µM. At yeast α-glucosidase, this molecule showed an inhibition constant (Ki) of 52 µM. Besides, in the assay with yeast α-glucosidase, the “type of α-glucosidase inhibition (in words)” value is “non-competitive”. Besides, in the assay on yeast α-glucosidase, the “α-Glucosidase Inhibition (%), Mean ± SD” value is 69.12 ± 1.20 %. The IC50 on yeast α-glucosidase is 51.3 ± 1.23 µM; at human recombinant PTP1B, above 400 µM; at α-glucosidase (mixed type inhibition, ref Xu et al. [35]), 18.6 µM; at α-glucosidase (non-competitive inhibition, ref Ha et al. [28]), 45.4 µM; on α-glucosidase (ref Proença et al. [34]), 46 ± 6 µM; at α-glucosidase (reversible, non-competitive, ref Yan et al. [29]), 172 µM. In the assay on yeast α-glucosidase (ratio of IC50 values), the “potency against α-glucosidase compared with the positive control, acarbose” value is recorded as “five-fold more potent”. Moreover, the “DPPH Inhibition (%), Mean ± SD” value in assay [1] was 76.65 ± 0.73 %. In addition, the α-glucosidase inhibition percentage in the assay on α-glucosidase (at 200 µM, mixed type (close to non-competitive), ref Tadera et al. [31]) was 92%. The α-glucosidase inhibition with α-glucosidase (at a concentration of 0.5 mg/mL, ref Kim et al. [32]) was 36%. At BACE1 (Lineweaver-Burk and Dixon plots), the “type of BACE1 inhibition (in words)” value was “non-competitive”. At BACE1 (setting [4]), the inhibition at 100 µM was determined as 73.73 ± 0.57%.

Take `CC(C)(S)[C@@H](N)C(=O)O` [Penicillamine, penicillamine, reference compound]: in assay [3], the “ONOO− Inhibition (%), Mean ± SD” value is reported as 56.57 ± 2.03 % and a half-maximal effect (EC50) was put at 2.28 ± 0.02 µM.

`O=c1c(O)c(-c2ccc(O)c(O)c2)oc2cc(O)cc(O)c12` [Quercetin, quercetin, reference compound]: on BACE1 (setting [4]), the inhibition at 4.5 µg/mL worked out at 70 ± 3.91% and the inhibition at 10 µM is 67.6 ± 4.1%.

Source of the values: PMC6385118, “Korean Thistle (Cirsium japonicum var. maackii (Maxim.) Matsum.): A Potential Dietary Supplement against Diabetes and Alzheimer’s Disease” (Molecules, 2019).
